Each compound was assayed against Trx-6×His-BCL6 (human BCL6 BTB domain covering amino-acid sequence 5-129) (Homo sapiens (Human), UniProt P41182) (assay: HTRF in vitro assay (BCL6 / BCOR-AF633 peptide)). Details: further generated data; 1 nM Trx-6×His-BCL6, 300 nM BCOR-AF633 peptide, 0.5 nM anti-6×His-Terbium cryptate.
Assay type: binding
Experimental: The % inhibition at each concentration was calculated by normalising FRET ratio to the appropriate high (DMSO with all reagents) and low (DMSO without BCL6) controls.

`Cn1c(=O)n(CCC(C)(C)O)c2cc(Nc3ccncc3Cl)ccc21` [Example 29e, 5-((3-chloropyridin-4-yl)amino)-3-(3-hydroxy-3-methylbutyl)-1-methyl-1,3-dihydro-2H-benzo[d]imidazol-2-one] and `C[C@@H]1CN(c2cc(Nc3ccc4c(c3)n(CCC(C)(C)O)c(=O)n4C)c(Cl)cn2)C[C@H](C)O1` [Example 36b, 5-((5-chloro-2-((2R,6S)-2,6-dimethylmorpholino)pyridin-4-yl)amino)-3-(3-hydroxy-3-methylbutyl)-1-methyl-1,3-dihydro-2H-benzo[d]imidazol-2-one] are within 0.2 log units of each other in “HTRF pIC50” value: 5.93 for the first, 5.99 for the second.

Going from `Cn1c(=O)n(CCC(C)(C)O)c2cc(Nc3nc(N4CCCC4=O)ncc3Cl)ccc21` [Example 30b, 5-((5-chloro-2-(2-oxopyrrolidin-1-yl)pyrimidin-4-yl)amino)-3-(3-hydroxy-3-methylbutyl)-1-methyl-1,3-dihydro-2H-benzo[d]imidazol-2-one] to `Cn1c(=O)n(CCC(C)(C)O)c2cc(Nc3nc(N4CCC[C@H]4CO)ncc3Cl)ccc21` [Example 31a, (S)-5-((5-chloro-2-(2-(hydroxymethyl)pyrrolidin-1-yl)pyrimidin-4-yl)amino)-3-(3-hydroxy-3-methylbutyl)-1-methyl-1,3-dihydro-2H-benzo[d]imidazol-2-one], the “HTRF pIC50” value rises from 5.99 to 6.46.

`Cn1c(=O)n(CCC(C)(C)O)c2cc(Nc3cc(N4CCC[C@H]4CO)nc4c(C#N)cnn34)ccc21` [Example 31b, (S)-7-((3-(3-hydroxy-3-methylbutyl)-1-methyl-2-oxo-2,3-dihydro-1H-benzo[d]imidazol-5-yl)amino)-5-(2-(hydroxymethyl)pyrrolidin-1-yl)pyrazolo[1,5-a]pyrimidine-3-carbonitrile] and `CN(C)C(=O)C1CCN(c2cc(Nc3ccc4c(c3)n(CCC(C)(C)O)c(=O)n4C)c(Cl)cn2)CC1` [Example 36c, 1-(5-chloro-4-((3-(3-hydroxy-3-methylbutyl)-1-methyl-2-oxo-2,3-dihydro-1H-benzo[d]imidazol-5-yl)amino)pyridin-2-yl)-N,N-dimethylpiperidine-4-carboxamide] are within 0.2 log units of each other in “HTRF pIC50” value: 5.73 for the first, 5.88 for the second.

`Cn1c(=O)n(CCC2(C)CO2)c2cc(Nc3ccnc(Cl)c3C#N)ccc21` (stereo not shown) [Example 32, 2-chloro-4-((1-methyl-3-(2-(2-methyloxiran-2-yl)ethyl)-2-oxo-2,3-dihydro-1H-benzo[d]imidazol-5-yl)amino)nicotinonitrile] and `CN1CC(C)(CCn2c(=O)n(C)c3ccc(Nc4ccnc(Cl)c4C#N)cc32)OC1=O` (stereo not shown) [Example 33, 2-chloro-4-((3-(2-(3,5-dimethyl-2-oxooxazolidin-5-yl)ethyl)-1-methyl-2-oxo-2,3-dihydro-1H-benzo[d]imidazol-5-yl)amino)nicotinonitrile] are within 0.2 log units of each other in “HTRF pIC50” value: 5.44 for the first, 5.43 for the second.

`CC1OC(=O)NC1Cn1c(=O)n(C)c2ccc(Nc3ccnc(Cl)c3C#N)cc21` (stereo not shown) [Example 34, 2-chloro-4-((1-methyl-3-((5-methyl-2-oxooxazolidin-4-yl)methyl)-2-oxo-2,3-dihydro-1H-benzo[d]imidazol-5-yl)amino)nicotinonitrile] and `C[C@@H]1C[C@H](C)CN(c2cc(Nc3ccc4c(c3)n(CCC(C)(C)O)c(=O)n4C)c(Cl)cn2)C1` [Example 36d, 5-((5-chloro-2-((3S,5R)-3,5-dimethylpiperidin-1-yl)pyridin-4-yl)amino)-3-(3-hydroxy-3-methylbutyl)-1-methyl-1,3-dihydro-2H-benzo[d]imidazol-2-one] are within 0.2 log units of each other in “HTRF pIC50” value: 5.31 for the first, 5.48 for the second.

Going from `Cn1c(=O)n(CCC(C)(C)O)c2cc(Nc3nc(N4CCC5(CC4)CC(F)(F)C5)ncc3Cl)ccc21` [Example 35f, 5-((5-chloro-2-(2,2-difluoro-7-azaspiro[3.5]nonan-7-yl)pyrimidin-4-yl)amino)-3-(3-hydroxy-3-methylbutyl)-1-methyl-1,3-dihydro-2H-benzo[d]imidazol-2-one] to `Cn1c(=O)n(CCC(C)(C)O)c2cc(Nc3nc(N4CC5CC(C4)C5(F)F)ncc3Cl)ccc21` [Example 35w, 5-((5-chloro-2-(6,6-difluoro-3-azabicyclo[3.1.1]heptan-3-yl)pyrimidin-4-yl)amino)-3-(3-hydroxy-3-methylbutyl)-1-methyl-1,3-dihydro-2H-benzo[d]imidazol-2-one], the “HTRF pIC50” value falls from 6.05 to 5.74.

First: Cn1c(=O)n(CCC(C)(C)O)c2cc(Nc3nc(N4C[C@@H](F)[C@@H](F)C4)ncc3Cl)ccc21 [Example 35h, 5-((5-chloro-2-((3R,4S)-3,4-difluoropyrrolidin-1-yl)pyrimidin-4-yl)amino)-3-(3-hydroxy-3-methylbutyl)-1-methyl-1,3-dihydro-2H-benzo[d]imidazol-2-one]
Second: C[C@@H]1CN(c2ncc(Cl)c(Nc3ccc4c(c3)n(CCC(C)(C)O)c(=O)n4C)n2)C[C@@H]1C [Example 35p, 5-((5-chloro-2-((3R,4S)-3,4-dimethylpyrrolidin-1-yl)pyrimidin-4-yl)amino)-3-(3-hydroxy-3-methylbutyl)-1-methyl-1,3-dihydro-2H-benzo[d]imidazol-2-one]
The “HTRF pIC50” value of the first is higher: 6.36 for the first, 6.15 for the second.

Going from `Cn1c(=O)n(C[C@@H]2CCCN2CC(F)(F)F)c2cc(Nc3nc(N4CC(C)(C)OC(C)(C)C4)ncc3Cl)ccc21` [Example 35i, (S)-5-((5-chloro-2-(2,2,6,6-tetramethylmorpholino)pyrimidin-4-yl)amino)-1-methyl-3-((1-(2,2,2-trifluoroethyl)pyrrolidin-2-yl)methyl)-1,3-dihydro-2H-benzo[d]imidazol-2-one] to `C[C@@H]1CCN(c2ncc(Cl)c(Nc3ccc4c(c3)n(CCC(C)(C)O)c(=O)n4C)n2)C[C@H](C)C1` [Example 35y, 5-((5-chloro-2-((3R,5S)-3,5-dimethylazepan-1-yl)pyrimidin-4-yl)amino)-3-(3-hydroxy-3-methylbutyl)-1-methyl-1,3-dihydro-2H-benzo[d]imidazol-2-one], the “HTRF pIC50” value falls from 6.01 to 5.70.

`Cn1c(=O)n(CCC(C)(C)O)c2cc(Nc3nc(N4C[C@@H]5CC[C@@H](C5)C4)ncc3Cl)ccc21` [Example 35n, 5-((2-((1R,5S)-3-azabicyclo[3.2.1]octan-3-yl)-5-chloropyrimidin-4-yl)amino)-3-(3-hydroxy-3-methylbutyl)-1-methyl-1,3-dihydro-2H-benzo[d]imidazol-2-one] and `Cn1c(=O)n(CCC(C)(C)O)c2cc(Nc3nc(N4C[C@H]5CCCC[C@H]5C4)ncc3Cl)ccc21` [Example 35o, 5-((5-chloro-2-((3aR,7aS)-octahydro-2H-isoindo1-2-yl)pyrimidin-4-yl)amino)-3-(3-hydroxy-3-methylbutyl)-1-methyl-1,3-dihydro-2H-benzo[d]imidazol-2-one] are within 0.2 log units of each other in “HTRF pIC50” value: 6.05 for the first, 6.04 for the second.

Going from `C[C@@H]1CN(c2ncc(Cl)c(Nc3cnc4c(c3)n(CCC(C)(C)O)c(=O)n4CCC(C)(C)O)n2)C[C@H](C)C1(F)F` [Example 35r, 6-((5-chloro-2-((3R,5S)-4,4-difluoro-3,5-dimethylpiperidin-1-yl)pyrimidin-4-yl)amino)-1,3-bis(3-hydroxy-3-methylbutyl)-1,3-dihydro-2H-imidazo[4,5-b]pyridin-2-one] to `C[C@@H]1CN(c2ncc(Cl)c(Nc3ccc4c(c3)n(CCC(C)(C)O)c(=O)n4CCN(C)C)n2)C[C@H](C)C1(F)F` [Example 37a, 5-((5-chloro-2-((3S,5R)-4,4-difluoro-3,5-dimethylpiperidin-1-yl)pyrimidin-4-yl)amino)-1-(2-(dimethylamino)ethyl)-3-(3-hydroxy-3-methylbutyl)-1,3-dihydro-2H-benzo[d]imidazol-2-one], the “HTRF pIC50” value rises from 5.98 to 6.53.

`Cn1c(=O)n(CCC(C)(C)O)c2cc(Nc3nc(N4CC5CCC(C4)C5(F)F)ncc3Cl)ccc21` [Example 35s, 5-((5-chloro-2-(8,8-difluoro-3-azabicyclo[3.2.1]octan-3-yl)pyrimidin-4-yl)amino)-3-(3-hydroxy-3-methylbutyl)-1-methyl-1,3-dihydro-2H-benzo[d]imidazol-2-one] and `Cn1c(=O)n(CCC(C)(C)O)c2cc(Nc3nc(N4CCCC(c5ccccc5)C4)ncc3Cl)ccc21` (stereo not shown) [Example 35za, 5-((5-chloro-2-(3-phenylpiperidin-1-yl)pyrimidin-4-yl)amino)-3-(3-hydroxy-3-methylbutyl)-1-methyl-1,3-dihydro-2H-benzo[d]imidazol-2-one] are within 0.2 log units of each other in “HTRF pIC50” value: 6.16 for the first, 6.00 for the second.

First: CC(C)(O)CCn1c(=O)n(CCC(C)(C)O)c2c(Cl)cc(Nc3nc(N4CC(C)(C)OC(C)(C)C4)ncc3Cl)cc21 [Example 35u, 4-chloro-6-((5-chloro-2-(2,2,6,6-tetramethylmorpholino)pyrimidin-4-yl)amino)-1,3-bis(3-hydroxy-3-methylbutyl)-1,3-dihydro-2H-benzo[d]imidazol-2-one]
Second: C[C@@H]1C[C@H](C)CN(C(=O)c2cc(Nc3ccc4c(c3)n(CCC(C)(C)O)c(=O)n4C)c(Cl)cn2)C1 [Example 36e, 5-((5-chloro-2-((3R,5S)-3,5-dimethylpiperidine-1-carbonyl)pyridin-4-yl)amino)-3-(3-hydroxy-3-methylbutyl)-1-methyl-1,3-dihydro-2H-benzo[d]imidazol-2-one]
The “HTRF pIC50” value of the first is lower: 5.74 for the first, 6.22 for the second.

For `C[C@@H]1CN(C(=O)c2cc(Nc3ccc4c(c3)n(CCC(C)(C)O)c(=O)n4C)c(Cl)cn2)C[C@H](C)C1(F)F` [Example 36f, 5-((5-chloro-2-((3S,5R)-4,4-difluoro-3,5-dimethylpiperidine-1-carbonyl)pyridin-4-yl)amino)-3-(3-hydroxy-3-methylbutyl)-1-methyl-1,3-dihydro-2H-benzo[d]imidazol-2-one], the “HTRF pIC50” value was 6.07.
